Consider 7 compounds from US11000454B2, “Dental composition” (DENTSPLY SIRONA inc., priority 2016, dated 2021).

Structures are written as SMILES.

Series [1] in a line: Solubility of the compounds in tested solvents. In kind it is physicochemical. Details: key to solubility: “−” means NO solubility; “++” means VERY GOOD solubility.
The nature of series [2]: Viscosity measured at 23° C. As to conditions: viscosity at 23° C. In kind it is physicochemical. The protocol: (§1) (nD^20) and viscosity n measured at 23° C. (η23° C.) for compounds of formula (I) according to the invention denoted as (Ib) and (Ic), and comparative compounds (C1), (C2) and (C3). Compound (Ib) is N,N′-bisacryloyl-N,N′-bisallyl-[…], and compound (Ic) is N,N′-bisacryloyl-N,N′-bispropyl-1,4-but-2-endiamine. Comparative compound (C1) is N,N′-bisacetyl-N,N′-bisallyl-1,4-but-2-endiamine, (C2) is N,N′-bisacryloyl-N,N′-bisallyl-1,4-butandiamine, and C(3) is N,N′-bisacryloyl-N,N′-bispropyl-1,4-butandiamine. In FIG. 1, RI is depicted by dark grey bars, and the viscosity η by light grey hatched bars. For comparative compound (C1), no viscosity η was determined (indicated by “*”), since this compound is a solid.

Series [3] is described as follows: Refractive index (RI) measured at 20° C. In kind it is physicochemical. The protocol:
as §1

Series [4] can be described thus: Discoloration of the dental composition upon storage. In kind it is physicochemical. As to conditions: storage at 50° C. for 30 days. From the text: Discoloration upon storage and/or during photocuring may be determined according to ISO 7491:2000(en).
Setting [5] is: refractive index at 20° C., tables.
Setting [6] is: refractive index, preparative examples.

What is called melting point is the temperature, or range, at which the solid turns liquid.

As for `C=CCN(CCCCN(CC=C)C(=O)C=C)C(=O)C=C` [(C2), N,N′-Bisacryloyl-N,N′-bisallyl-1,4-butandiamine], the solubility entry in series [1] (EtOH) is reported as “−”; in series [1] (acetone) it was “++”; in series [1] (iPrOH), “−”; in series [1] (methacrylic acid) it was “++”; in series [1] (water), “−”; in series [1] (water/alcohol), “−”. In series [1] (alcohols like ethanol or isopropanol), the solubility in alcohols entry is “not soluble”. Further, the “η23° C.” value in series [2] (tables) is recorded as 382.0 mPa · s. Besides, the “nD^20” value came to 1.5150 in series [3] (setting [5]) and 1.515 in series [3] (setting [6]).
For `C=CC(=O)N(CCC)CCCCN(CCC)C(=O)C=C` [(C3), N,N′-Bisacryloyl-N,N′-bispropyl-1,4-butandiamine], the solubility result is listed as “++” in series [1] (EtOH); “++” in series [1] (acetone); “++” in series [1] (iPrOH); “++” in series [1] (methacrylic acid); “−” in series [1] (water). Besides, the “η23° C.” value in series [2] (preparative examples) worked out at 486±1 Pa*s; in series [2] (tables), 485.5 mPa · s. Further, the “nD^20” value was 1.5150 in series [3] (setting [5]) and 1.515 in series [3] (setting [6]).
As to `C=CCN(C/C=C/C(C)N(CC=C)C(=O)C=C)C(=O)C=C` (stereo not drawn) [Compound (Ib)], the solubility entry in series [1] (EtOH) was “++”; in series [1] (acetone), “++”; in series [1] (iPrOH), “++”; in series [1] (methacrylic acid), “++”; in series [1] (water), “−”. Further, in series [2] (tables), the “η23° C.” value came to 409.0 mPa · s. Further, the figures for the “nD^20” value in series [3] (setting [5]) and in series [3] (setting [6]) were 1.5260 and 1.526, respectively.
`C=CC(=O)N(C/C=C/CN(CCC)C(=O)C=C)CCC` [(Ic), N,N′-Bisacryloyl-N,N′-bispropyl-1,4-but-2-endiamine]: the solubility entry in series [1] (EtOH) is “++”; in series [1] (acetone), “++”; in series [1] (iPrOH), “++”; in series [1] (methacrylic acid), “++”; in series [1] (water), “−”. Further, the “η23° C.” value in series [2] (preparative examples) is given as 428±3 Pa*s; in series [2] (tables), 427.5 mPa · s. The “nD^20” value in series [3] (setting [5]) and in series [3] (setting [6]) was 1.5095 throughout.
Take `C=CCN(C/C=C/CN(CC=C)C(=O)C=C)C(=O)C=C` [(Ia)]: the solubility result in series [1] (EtOH) was “++”; in series [1] (acetone), “++***)”; in series [1] (iPrOH) it was “++”; in series [1] (methacrylic acid), “++”; in series [1] (water) it was “−**^)”. In addition, in series [2] (tables), the “η23° C.” value is 338.0 mPa · s. Also, in series [3] (setting [5]), the “nD^20” value was found to be 1.5290.
For the compound `C=CCN(C/C=C/CN(CC=C)C(C)=O)C(C)=O` [(C1), N,N′-Bisacetyl-N,N′-bisallyl-1,4-but-2-endiamine], the melting point is 32 °C. In addition, the solubility result in series [1] (EtOH) is on record as “++”. Besides, the solubility result in series [1] (acetone) is listed as “++”. In addition, in series [1] (iPrOH), the solubility result is on record as “++”. The solubility result in series [1] (methacrylic acid) is given as “++”. Further, the solubility entry in series [1] (water) was “−”. For the same compound, the “nD^20” value in series [3] (setting [6]) stood at 1.505.
With `CC(C)(C)c1cc(O)c(C(C)(C)C)cc1O` [DTBHQ], in series [4], the “discoloration of the dental composition upon storage” value was “no or almost no discoloration”.
